Laboratory results from the NIST ThermoML archive (doi:10.1016/j.jct.2016.09.028).
Numbers after ± are expanded uncertainties.

Key:
[1] = 100 kPa, Liquid; for speed of sound: Frequency=3 MHz, Sing-around technique in a fixed-path interferometer; for mass density: Vibrating tube method
[2] = xn = mol fraction of the nth substance listed; settings: 100 kPa, Liquid, x1 = 1; for speed of sound: Frequency=3 MHz, Sing-around technique in a fixed-path interferometer; for mass density: Vibrating tube method

SMILES: CCn1cc[n+](C)c1.F[B-](F)(F)F [1-ethyl-3-methylimidazolium tetrafluoroborate]
- speed of sound ([1]; 293.15 K): 1632.6 ± 2.4 m/s
- mass density ([1]; 293.15 K): 1283.64 ± 1.7 kg/m3
- speed of sound ([1]; 303.15 K): 1609.5 ± 2.4 m/s
- mass density ([1]; 303.15 K): 1276.12 ± 1.7 kg/m3
- speed of sound ([1]; 313.15 K): 1586.2 ± 2.4 m/s
- mass density ([1]; 313.15 K): 1268.57 ± 1.6 kg/m3
- speed of sound ([1]; 323.15 K): 1563.4 ± 2.3 m/s
- mass density ([1]; 323.15 K): 1261.04 ± 1.6 kg/m3

SMILES: CCn1cc[n+](C)c1.F[B-](F)(F)F [1-ethyl-3-methylimidazolium tetrafluoroborate] + Nc1ccccc1
- speed of sound ([2]; 293.15 K): 1632.6 ± 2.4 m/s
- mass density ([2]; 293.15 K): 1283.64 ± 1.7 kg/m3
- speed of sound ([2]; 303.15 K): 1609.5 ± 2.4 m/s
- mass density ([2]; 303.15 K): 1276.12 ± 1.7 kg/m3
- speed of sound ([2]; 313.15 K): 1586.2 ± 2.4 m/s
- mass density ([2]; 313.15 K): 1268.57 ± 1.6 kg/m3
- speed of sound ([2]; 323.15 K): 1563.4 ± 2.3 m/s
- mass density ([2]; 323.15 K): 1261.04 ± 1.6 kg/m3
